# Earlier results as cited in paper PMC8513935.
# Columns and labels:
# [1] = derived by the authors as gas->solvent minus gas->water (a hypothetical dry solvent; the ESI), not a two-phase measurement
# [2] = log P octanol/water from commercial databases, averaged (the ESI); details: Octanol (wet), 25 C
# [3] = experimental, compiled by the authors from the literature (the ESI cites the sources)
smiles,measurement,setting,value
CCCCCCCCC,"log K of transfer, water to solvent","[1]; 1,2-Dichloroethane, 25 C",6.04 log10 K
same,"log K of transfer, water to solvent","[1]; Acetone, 25 C",5.81 log10 K
same,"log K of transfer, water to solvent","[1]; Acetonitrile, 25 C",5.15 log10 K
same,"log K of transfer, water to solvent","[1]; Butanone, 25 C",6.05 log10 K
same,"log K of transfer, water to solvent","[1]; Butyronitrile, 25 C",5.78 log10 K
same,"log K of transfer, water to solvent","[1]; CCl4, 25 C",6.7 log10 K
same,"log K of transfer, water to solvent","[1]; Chlorobenzene, 25 C",6.67 log10 K
same,"log K of transfer, water to solvent","[1]; Chloroform, 25 C",6.57 log10 K
same,"log K of transfer, water to solvent","[1]; Cyclohexanone, 25 C",5.99 log10 K
same,"log K of transfer, water to solvent","[1]; Dichloromethane, 25 C",6.36 log10 K
same,"log K of transfer, water to solvent","[1]; Ethanol, 25 C",5.67 log10 K
same,"log K of transfer, water to solvent","[1]; Hexadecane, 25 C",6.33 log10 K
same,"log K of transfer, water to solvent","[1]; Hexane, 25 C",6.66 log10 K
same,"log K of transfer, water to solvent","[1]; Methanol, 25 C",5.38 log10 K
same,"log K of transfer, water to solvent","[1]; Perfluoroalkane, 25 C",5.02 log10 K
same,"log K of transfer, water to solvent","[1]; Propan-1-ol, 25 C",5.7 log10 K
same,"log K of transfer, water to solvent","[1]; Propan-2-ol, 25 C",5.78 log10 K
same,"log K of transfer, water to solvent","[1]; Propionitrile, 25 C",5.57 log10 K
same,"log K of transfer, water to solvent","[1]; Tetrahydrofuran, 25 C",6.49 log10 K
same,"log K of transfer, water to solvent","[1]; Toluene, 25 C",6.49 log10 K
same,"log K of transfer, water to solvent",[2],5.65 log10 K
same,"log K of transfer, gas to solvent","[3]; 1,2-Dichloroethane, 25 C",3.89 log10 K
same,"log K of transfer, gas to solvent","[3]; Acetonitrile, 25 C",3 log10 K
same,"log K of transfer, gas to solvent","[3]; Butanone, 25 C",3.9 log10 K
same,"log K of transfer, gas to solvent","[3]; Butyronitrile, 25 C",3.63 log10 K
same,"log K of transfer, gas to solvent","[3]; CCl4, 25 C",4.55 log10 K
same,"log K of transfer, gas to solvent","[3]; Chlorobenzene, 25 C",4.52 log10 K
same,"log K of transfer, gas to solvent","[3]; Chloroform, 25 C",4.42 log10 K
same,"log K of transfer, gas to solvent","[3]; Cyclohexanone, 25 C",3.84 log10 K
same,"log K of transfer, gas to solvent","[3]; Dichloromethane, 25 C",4.21 log10 K
same,"log K of transfer, gas to solvent","[3]; Ethanol, 25 C",3.52 log10 K
same,"log K of transfer, gas to solvent","[3]; Hexadecane, 25 C",4.18 log10 K
same,"log K of transfer, gas to solvent","[3]; Hexane, 25 C",4.51 log10 K
same,"log K of transfer, gas to solvent","[3]; Methanol, 25 C",3.23 log10 K
same,"log K of transfer, gas to solvent","[3]; Perfluoroalkane, 25 C",2.87 log10 K
same,"log K of transfer, gas to solvent","[3]; Propan-1-ol, 25 C",3.55 log10 K
same,"log K of transfer, gas to solvent","[3]; Propan-2-ol, 25 C",3.63 log10 K
same,"log K of transfer, gas to solvent","[3]; Propanone, 25 C",3.66 log10 K
same,"log K of transfer, gas to solvent","[3]; Propionitrile, 25 C",3.42 log10 K
same,"log K of transfer, gas to solvent","[3]; Tetrahydrofuran, 25 C",4.34 log10 K
same,"log K of transfer, gas to solvent","[3]; Toluene, 25 C",4.34 log10 K
same,"log K of transfer, gas to solvent","[3]; Water, 25 C",-2.15 log10 K
CO,"log K of transfer, water to solvent","[1]; 1,2-Dichloroethane, 25 C",-1.58 log10 K
same,"log K of transfer, water to solvent","[1]; 2-Methylpropan-1-ol, 25 C",-0.58 log10 K
same,"log K of transfer, water to solvent","[1]; 2-Methylpropan-2-ol, 25 C",-0.35 log10 K
same,"log K of transfer, water to solvent","[1]; 3-Methylbutan-1-ol, 25 C",-0.672 log10 K
same,"log K of transfer, water to solvent","[1]; Acetone, 25 C",-0.71 log10 K
same,"log K of transfer, water to solvent","[1]; Acetonitrile, 25 C",-0.81 log10 K
same,"log K of transfer, water to solvent","[1]; Benzene, 25 C",-1.85 log10 K
same,"log K of transfer, water to solvent","[1]; Butan-1-ol, 25 C",-0.72 log10 K
same,"log K of transfer, water to solvent","[1]; Butan-2-ol, 25 C",-0.45 log10 K
same,"log K of transfer, water to solvent","[1]; Butanone, 25 C",-0.93 log10 K
same,"log K of transfer, water to solvent","[1]; Butyronitrile, 25 C",-1.06 log10 K
same,"log K of transfer, water to solvent","[1]; CCl4, 25 C",-2.24 log10 K
same,"log K of transfer, water to solvent","[1]; Chlorobenzene, 25 C",-2.07 log10 K
same,"log K of transfer, water to solvent","[1]; Chloroform, 25 C",-1.33 log10 K
same,"log K of transfer, water to solvent","[1]; Cyclohexane, 25 C",-2.77 log10 K
same,"log K of transfer, water to solvent","[1]; Decan-1-ol, 25 C",-1.21 log10 K
same,"log K of transfer, water to solvent","[1]; Di-n-butyl ether, 25 C",-1.8 log10 K
same,"log K of transfer, water to solvent","[1]; Dichloromethane, 25 C",-1.45 log10 K
same,"log K of transfer, water to solvent","[1]; Diethyl Ether, 25 C",-1.26 log10 K
same,"log K of transfer, water to solvent","[1]; Ethanol, 25 C",-0.34 log10 K
same,"log K of transfer, water to solvent","[1]; Hexadecane, 25 C",-2.77 log10 K
same,"log K of transfer, water to solvent","[1]; Hexane, 25 C",-2.59 log10 K
same,"log K of transfer, water to solvent","[1]; Methanol, 25 C",-0.14 log10 K
same,"log K of transfer, water to solvent","[1]; Octan-1-ol(dry), 25 C",-0.9 log10 K
same,"log K of transfer, water to solvent","[1]; Pentan-1-ol, 25 C",-0.67 log10 K
same,"log K of transfer, water to solvent","[1]; Propan-1-ol, 25 C",-0.59 log10 K
same,"log K of transfer, water to solvent","[1]; Propan-2-ol, 25 C",-0.46 log10 K
same,"log K of transfer, water to solvent","[1]; Tetrahydrofuran, 25 C",-0.9 log10 K
same,"log K of transfer, water to solvent","[1]; Toluene, 25 C",-2.14 log10 K
same,"log K of transfer, water to solvent",[2],-0.755 log10 K
c1ccccc1,"log K of transfer, water to solvent","[1]; 1,2-Dichloroethane, 25 C",2.69 log10 K
same,"log K of transfer, water to solvent","[1]; 2-Methylpropan-1-ol, 25 C",2.09 log10 K
same,"log K of transfer, water to solvent","[1]; 2-Methylpropan-2-ol, 25 C",2.09 log10 K
same,"log K of transfer, water to solvent","[1]; Acetone, 25 C",2.58 log10 K
same,"log K of transfer, water to solvent","[1]; Acetonitrile, 25 C",2.43 log10 K
same,"log K of transfer, water to solvent","[1]; Benzene, 25 C",2.71 log10 K
same,"log K of transfer, water to solvent","[1]; Butan-1-ol, 25 C",2.24 log10 K
same,"log K of transfer, water to solvent","[1]; Butan-2-ol, 25 C",2.14 log10 K
same,"log K of transfer, water to solvent","[1]; Butanone, 25 C",2.66 log10 K
same,"log K of transfer, water to solvent","[1]; Butyronitrile, 25 C",2.6 log10 K
same,"log K of transfer, water to solvent","[1]; CCl4, 25 C",2.61 log10 K
same,"log K of transfer, water to solvent","[1]; Chlorobenzene, 25 C",2.61 log10 K
same,"log K of transfer, water to solvent","[1]; Chloroform, 25 C",2.76 log10 K
same,"log K of transfer, water to solvent","[1]; Cyclohexane, 25 C",2.3 log10 K
same,"log K of transfer, water to solvent","[1]; Cyclohexanone, 25 C",2.67 log10 K
same,"log K of transfer, water to solvent","[1]; Decan-1-ol, 25 C",2 log10 K
same,"log K of transfer, water to solvent","[1]; Di-n-butyl ether, 25 C",2.38 log10 K
same,"log K of transfer, water to solvent","[1]; Dichloromethane, 25 C",2.89 log10 K
same,"log K of transfer, water to solvent","[1]; Ethanol, 25 C",2.15 log10 K
same,"log K of transfer, water to solvent","[1]; Heptan-1-ol, 25 C",2.18 log10 K
same,"log K of transfer, water to solvent","[1]; Hexadecane, 25 C",2.15 log10 K
same,"log K of transfer, water to solvent","[1]; Hexane, 25 C",2.31 log10 K
same,"log K of transfer, water to solvent","[1]; Methanol, 25 C",2.14 log10 K
same,"log K of transfer, water to solvent","[1]; Octan-1-ol(dry), 25 C",2.17 log10 K
same,"log K of transfer, water to solvent","[1]; Pentan-1-ol, 25 C",2.2 log10 K
same,"log K of transfer, water to solvent","[1]; Propan-1-ol, 25 C",2.15 log10 K
same,"log K of transfer, water to solvent","[1]; Propan-2-ol, 25 C",2.04 log10 K
same,"log K of transfer, water to solvent","[1]; Propionitrile, 25 C",2.6 log10 K
same,"log K of transfer, water to solvent","[1]; Tetrahydrofuran, 25 C",2.85 log10 K
same,"log K of transfer, water to solvent","[1]; Toluene, 25 C",2.64 log10 K
same,"log K of transfer, water to solvent",[2],2.08 log10 K
